Source: US11034678B2, “Diacylglycerol acyl transferase 2 inhibitors” (Pfizer Inc., priority 2016, dated 2021)

Test: Metabolic clearance in HLM (hepatic clearance profile, Clint, app)
Type: in vitro ADME, human

Compound | CIint, app in HLM
CCOc1cccnc1Oc1cncc(-c2ncc(C(=O)NC(C)(C)CO)cn2)c1 [Example 5, 2-(5-((3-Ethoxypyridin-2-yl)oxy)pyridin-3-yl)-N-(1-hydroxy-2-methylpropan-2-yl)pyrimidine-5-carboxamide] | 18 µL/min/mg
CCOc1ccccc1O[C@@H]1CCCN(c2ncc(C(=O)NC(C)(C)CO)cn2)C1 [WO2015140658 Example 19.21] | 121 µL/min/mg
